#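 Interpolation was linear, between the two tested concentrations surrounding the appropriate level; five concentrations were tested over 48 hours in 96-well plates. At the GI50, growth is halved.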 Activity calls are given as the source filed them. Rule as the data show it: active = GI50 up to about 1.1 µM and inactive = higher.
# How the values were obtained:
# Assay in all cases: inhibition of tumour cell growth, NCI panel, 48 h
# SF-295 = system: SF-295
# Hs-578T = system: Hs-578T
# LOX IMVI = system: LOX IMVI
# RXF 393 = system: RXF 393
# OVCAR-4 = system: OVCAR-4
# HT-29 = system: HT-29
# M14 = system: M14
# SK-MEL-2 = system: SK-MEL-2
# CCRF-CEM = system: CCRF-CEM
# UO-31 = system: UO-31
# BT-549 = system: BT-549
# SW-620 = system: SW-620
# NCI/ADR-RES = system: NCI/ADR-RES
# U-251 = system: U-251
# NCI-H23 = system: NCI-H23
# EKVX = system: EKVX
# UACC-62 = system: UACC-62
# NCI-H460 = system: NCI-H460
# PC-3 = system: PC-3
# IGROV-1 = system: IGROV-1
# 786-0 = system: 786-0
# OVCAR-8 = system: OVCAR-8
# A498 = system: A498
# MOLT-4 = system: MOLT-4
# HCT-15 = system: HCT-15
# MDA-MB-435 = system: MDA-MB-435
# Malme-3M = system: Malme-3M
# DU-145 = system: DU-145
# MDA-MB-231 = system: MDA-MB-231
# T47D = system: T47D
# RPMI-8226 = system: RPMI-8226
# SNB-19 = system: SNB-19
# NCI-H226 = system: NCI-H226
# OVCAR-3 = system: OVCAR-3
# SF-268 = system: SF-268
# SNB-75 = system: SNB-75
# UACC-257 = system: UACC-257
# NCI-H522 = system: NCI-H522
# SK-MEL-28 = system: SK-MEL-28
# HCC 2998 = system: HCC 2998
# COLO 205 = system: COLO 205
# A549 = system: A549
# SR = system: SR
# SK-MEL-5 = system: SK-MEL-5
# TK-10 = system: TK-10
# OVCAR-5 = system: OVCAR-5
# HL-60 = system: HL-60
# KM12 = system: KM12
# ACHN = system: ACHN
# HOP-92 = system: HOP-92
# K562 = system: K562
# HOP-62 = system: HOP-62
# CAKI-1 = system: CAKI-1
# HCT-116 = system: HCT-116
# SK-OV-3 = system: SK-OV-3
smiles,measurement,setting,value
O=C(O)CCC(NC(=O)c1ccc(Oc2nc3ccccc3nc2C(=O)O)cc1)C(=O)O (stereo not given),GI50,SF-295,> 100 µM (inactive)
same,GI50,Hs-578T,> 100 µM (inactive)
same,GI50,LOX IMVI,> 100 µM (inactive)
same,GI50,RXF 393,> 100 µM (inactive)
same,GI50,OVCAR-4,> 100 µM (inactive)
same,GI50,HT-29,> 100 µM (inactive)
same,GI50,M14,> 100 µM (inactive)
same,GI50,SK-MEL-2,> 100 µM (inactive)
same,GI50,CCRF-CEM,> 100 µM (inactive)
same,GI50,UO-31,> 100 µM (inactive)
same,GI50,BT-549,33.3 µM (inactive)
same,GI50,SW-620,> 100 µM (inactive)
same,GI50,NCI/ADR-RES,> 100 µM (inactive)
same,GI50,U-251,> 100 µM (inactive)
same,GI50,NCI-H23,> 100 µM (inactive)
same,GI50,EKVX,> 100 µM (inactive)
same,GI50,UACC-62,> 100 µM (inactive)
same,GI50,NCI-H460,> 100 µM (inactive)
same,GI50,PC-3,> 100 µM (inactive)
same,GI50,IGROV-1,> 100 µM (inactive)
same,GI50,786-0,> 100 µM (inactive)
same,GI50,OVCAR-8,> 100 µM (inactive)
same,GI50,A498,> 100 µM (inactive)
same,GI50,MOLT-4,> 100 µM (inactive)
same,GI50,HCT-15,> 100 µM
same,GI50,MDA-MB-435,> 100 µM (inactive)
same,GI50,Malme-3M,> 100 µM (inactive)
same,GI50,DU-145,> 100 µM (inactive)
same,GI50,MDA-MB-231,> 100 µM (inactive)
same,GI50,T47D,> 100 µM (inactive)
same,GI50,RPMI-8226,> 100 µM (inactive)
same,GI50,SNB-19,> 100 µM (inactive)
same,GI50,NCI-H226,> 100 µM (inactive)
same,GI50,OVCAR-3,> 100 µM (inactive)
same,GI50,SF-268,> 100 µM (inactive)
same,GI50,SNB-75,> 100 µM (inactive)
same,GI50,UACC-257,> 100 µM (inactive)
same,GI50,NCI-H522,> 100 µM (inactive)
same,GI50,SK-MEL-28,> 100 µM (inactive)
same,GI50,HCC 2998,> 100 µM (inactive)
same,GI50,COLO 205,> 100 µM (inactive)
same,GI50,A549,> 100 µM (inactive)
same,GI50,SR,> 100 µM (inactive)
same,GI50,SK-MEL-5,> 100 µM (inactive)
same,GI50,TK-10,> 100 µM (inactive)
same,GI50,OVCAR-5,> 100 µM (inactive)
same,GI50,HL-60,> 100 µM (inactive)
same,GI50,KM12,> 100 µM (inactive)
same,GI50,ACHN,> 100 µM (inactive)
same,GI50,HOP-92,> 100 µM (inactive)
same,GI50,K562,> 100 µM (inactive)
same,GI50,HOP-62,> 100 µM (inactive)
same,GI50,CAKI-1,> 100 µM (inactive)
same,GI50,HCT-116,> 100 µM (inactive)
same,GI50,SK-OV-3,> 100 µM (inactive)

# From ChEMBL document CHEMBL1201862, “PubChem BioAssay data set” (2004)
